Test results from DBAASP.
Values after ≈ are worked out from the molar mass of the structure shown.

Legend:
Assay in all cases: ≥ marks a high value that may be exact or a test limit, other limits are often not marked, values filed in µg/mL are converted to µM
[1] = system: Escherichia coli
[2] = system: Listeria innocua
[3] = system: Micrococcus luteus A270
[4] = system: Bacillus subtilis ATCC 23857
[5] = system: Escherichia coli ATCC 25922
[6] = system: Staphylococcus aureus ATCC 25923
[7] = system: Staphylococcus epidermidis ATCC 12228
[8] = system: Staphylococcus aureus ATCC BAA-1556
[9] = system: Klebsiella pneumoniae ATCC 700603
[10] = system: Pseudomonas aeruginosa ATCC 9027
[11] = system: Staphylococcus aureus USA 300
[12] = system: Candida albicans ATCC 90028
[13] = system: Escherichia coli ATCC 25726
[14] = system: Pseudomonas aeruginosa ATCC 27853
[15] = system: Klebsiella pneumoniae ATCC 13883
[16] = system: Pseudomonas aeruginosa PAO1
[17] = system: Candida albicans ATCC 10231
[18] = system: Staphylococcus aureus NCTC 8325

SMILES | MIC [4] [µM] | MIC [5] [µM] | MIC [6] [µM] | MIC [13] [µM] | further results
CC(C)C[C@H](NC(=O)[C@H](CC(C)C)NC(=O)[C@H](CO)NC(=O)[C@H](Cc1cnc[nH]1)NC(=O)[C@H](CO)NC(=O)[C@H](CC(C)C)NC(=O)[C@H](CC(C)C)NC(=O)[C@@H](N)CCCCN)C(=O)O [KLLSHSLL] | – | – | – | – | MIC [1]: 68 µM (≈ 61.9 µg/mL); MIC [2]: ≥ 34 µM; MIC [3]: ≥ 34 µM
CC[C@H](C)[C@H](N)C(=O)N[C@@H](CC(C)C)C(=O)NCC(=O)N[C@H](C(=O)N[C@H](C(=O)N[C@@H](CC(C)C)C(=O)NCC(=O)N[C@@H](CC(C)C)C(=O)N[C@@H](CC(C)C)C(=O)N[C@@H](CCCCN)C(=O)N[C@H](C(=O)N[C@@H](CC(C)C)C(N)=O)[C@@H](C)O)[C@@H](C)CC)[C@@H](C)O [ILGTILGLLKTL] | 4 (≈ 5.01 µg/mL) | 64 (≈ 80.2 µg/mL) | 8 (≈ 10 µg/mL) | – | MIC [7]: 4 µM (≈ 5.01 µg/mL)
CC(C)C[C@H](NC(=O)[C@H](Cc1c[nH]c2ccccc12)NC(=O)[C@H](CCCN=C(N)N)NC(=O)[C@H](CC(C)C)NC(=O)[C@H](Cc1c[nH]c2ccccc12)NC(=O)[C@H](Cc1c[nH]c2ccccc12)NC(=O)[C@H](CC(C)C)NC(=O)[C@@H](N)Cc1c[nH]c2ccccc12)C(N)=O [WLWWLRWL] | – | – | – | – | MIC [8]: 6.25 µM (≈ 7.86 µg/mL)
CC[C@H](C)[C@H](N)C(=O)N[C@@H](CC(C)C)C(=O)NCC(=O)N[C@H](C(=O)N[C@H](C(=O)N[C@@H](CC(C)C)C(=O)NCC(=O)N[C@@H](CC(C)C)C(=O)N[C@@H](CC(C)C)C(=O)N[C@@H](CCCCN)C(=O)N[C@@H](CC(N)=O)C(=O)N[C@@H](CC(C)C)C(N)=O)[C@@H](C)CC)[C@@H](C)O [ILGTILGLLKNL] | 4 (≈ 5.07 µg/mL) | 32 (≈ 40.5 µg/mL) | 8 (≈ 10.1 µg/mL) | – | MIC [7]: 4 µM (≈ 5.07 µg/mL)
CC[C@H](C)[C@H](NC(=O)[C@H](CCCCN)NC(=O)[C@H](CCCCN)NC(=O)[C@H](C)NC(=O)[C@@H](NC(=O)[C@H](C)NC(=O)[C@H](CC(C)C)NC(=O)[C@H](CC(C)C)NC(=O)[C@H](C)NC(=O)[C@H](CCCCN)NC(=O)[C@H](CC(C)C)NC(=O)[C@H](CC(N)=O)NC(=O)[C@@H](N)CC(C)C)C(C)C)C(N)=O [LNLKALLAVAKKI] | 16 (≈ 22.3 µg/mL) | 16 (≈ 22.3 µg/mL) | 64 (≈ 89.2 µg/mL) | – | MIC [9]: 64 µM (≈ 89.2 µg/mL); MIC [10]: 32 µM (≈ 44.6 µg/mL)
CC[C@H](C)[C@H](NC(=O)[C@H](CCCN=C(N)N)NC(=O)[C@@H](NC(=O)[C@@H](NC(=O)[C@H](CCCCN)NC(=O)[C@@H](NC(=O)[C@H](CC(C)C)NC(=O)[C@@H](NC(=O)[C@@H](NC(=O)[C@H](CCCCN)NC(=O)[C@H](CCCN=C(N)N)NC(=O)[C@H](Cc1ccc(O)cc1)NC(=O)CNC(=O)[C@H](Cc1cnc[nH]1)NC(=O)[C@H](CC(N)=O)NC(=O)[C@@H](N)C(C)C)C(C)C)[C@@H](C)O)[C@@H](C)O)[C@@H](C)O)C(C)C)C(=O)N[C@@H](CCCCN)C(=O)N[C@@H](CCCCN)C(=O)N[C@@H](Cc1ccccc1)C(=O)N[C@@H](CCSC)C(=O)O [VNHGYRKVTLTKTVRIKKFM] | – | – | – | – | MIC [11]: ≥ 128 µM
CC[C@H](C)[C@H](N)C(=O)N[C@@H](CCCCN)C(=O)N[C@H](C(=O)N1CCC[C@H]1C(=O)N[C@@H](C)C(=O)N[C@H](C(=O)N[C@H](C(=O)N[C@@H](CCCCN)C(=O)N[C@@H](CC(=O)O)C(=O)N[C@H](C(=O)N[C@@H](CC(C)C)C(=O)N[C@@H](CCCCN)C(=O)N[C@@H](CCCCN)C(=O)N[C@H](C(=O)N[C@@H](C)C(=O)N[C@@H](CCCCN)C(=O)NCC(=O)N[C@H](C(=O)N[C@@H](CC(C)C)C(=O)N[C@@H](CO)C(=O)N[C@@H](C)C(=O)N[C@H](C(=O)N[C@@H](C)C(=O)NCC(=O)N[C@@H](C)C(=O)N[C@@H](CC(C)C)C(=O)N[C@H](C(=O)N[C@@H](CCC(N)=O)C(=O)O)[C@@H](C)O)C(C)C)C(C)C)C(C)C)[C@@H](C)O)C(C)C)C(C)C)[C@@H](C)CC [IKIPAVVKDTLKKVAKGVLSAVAGALTQ] | – | – | 40 (≈ 113 µg/mL) | 20 (≈ 56.4 µg/mL) | MIC [12]: ≥ 80 µM; MIC [9]: 40 µM (≈ 113 µg/mL); MIC [14]: 40 µM (≈ 113 µg/mL)
CC(C)C[C@H](NC(=O)[C@H](CCCCN)NC(=O)CNC(=O)[C@H](CC(C)C)NC(=O)[C@H](CC(C)C)NC(=O)[C@H](CC(C)C)NC(=O)[C@H](CO)NC(=O)[C@H](CC(C)C)NC(=O)[C@H](CC(C)C)NC(=O)[C@H](CC(C)C)NC(=O)[C@H](CO)NC(=O)[C@H](CC(C)C)NC(=O)CN)C(N)=O [GLSLLLSLLLGKL] | – | > 25 | – | – | MIC [15]: 25 µM (≈ 33.5 µg/mL); MIC [16]: > 25 µM; MIC [11]: 6.2 µM (≈ 8.3 µg/mL)
N=C(N)NCCC[C@H](NC(=O)[C@H](CCCNC(=N)N)NC(=O)[C@H](Cc1ccccc1)NC(=O)[C@H](Cc1ccccc1)NC(=O)[C@H](CCCNC(=N)N)NC(=O)[C@H](CCCNC(=N)N)NC(=O)[C@H](Cc1ccccc1)NC(=O)[C@H](Cc1ccccc1)NC(=O)[C@H](CCCNC(=N)N)NC(=O)[C@H](CCCNC(=N)N)NC(=O)[C@H](Cc1ccccc1)NC(=O)[C@H](Cc1ccccc1)NC(=O)[C@H](CCCNC(=N)N)NC(=O)[C@H](CCCNC(=N)N)NC(=O)[C@H](Cc1ccccc1)NC(=O)[C@@H](N)Cc1ccccc1)C(N)=O [FFRRFFRRFFRRFFRR] | 8.18 (≈ 20 µg/mL) | – | – | – | MIC [17]: > 20.5 µM
CC[C@H](C)[C@H](NC(=O)CN)C(=O)N[C@H](C(=O)N[C@@H](C)C(=O)NCC(=O)N[C@H](C(=O)N[C@H](C(=O)N[C@H](C(=O)N[C@@H](CCCCN)C(=O)N[C@H](C(=O)N[C@@H](C)C(=O)N[C@@H](CCCCN)C(N)=O)[C@@H](C)CC)[C@@H](C)CC)[C@@H](C)CC)[C@@H](C)CC)[C@@H](C)CC [GIIAGIIIKIAK] | ≥ 128 | > 128 | – | – | –
CC[C@H](C)[C@@H]1NC(=O)[C@@H]2CCCN2C(=O)[C@H](CC(C)C)NC(=O)[C@@H]2CCCN2C(=O)[C@H]([C@@H](C)CC)NC(=O)[C@H](Cc2c[nH]c3ccccc23)NC(=O)[C@H](CO)NC(=O)[C@@H](NC(=O)[C@@H](NC(=O)[C@@H](N)CCCN=C(N)N)C(C)C)CSSC[C@@H](C(=O)N[C@@H](Cc2cnc[nH]2)C(N)=O)NC1=O [RVCSWIPLPICH] | – | – | 250 (≈ 355 µg/mL) | ≥ 500 | –
CC[C@H](C)[C@H](NC(=O)[C@H](CCC(=O)O)NC(=O)CNC(=O)[C@H](CC(C)C)NC(=O)[C@H](Cc1ccccc1)NC(=O)[C@H](C)NC(=O)[C@H](CCCCN)NC(=O)CNC(=O)[C@H](Cc1ccccc1)NC(=O)[C@H](CCCCN)NC(=O)CNC(=O)[C@H](C)NC(=O)[C@H](CO)NC(=O)[C@H](Cc1cnc[nH]1)NC(=O)[C@H](CC(C)C)NC(=O)[C@@H](NC(=O)[C@H](CCCCN)NC(=O)[C@H](CO)NC(=O)[C@@H](NC(=O)CN)C(C)C)[C@@H](C)CC)C(=O)N[C@@H](CCSC)C(=O)N[C@@H](CCCCN)C(=O)N[C@@H](CO)C(=O)O [GVSKILHSAGKFGKAFLGEIMKS] | – | 50 (≈ 120 µg/mL) | > 100 | ≥ 100 | MIC [9]: 100 µM (≈ 241 µg/mL); MIC [14]: 200 µM (≈ 481 µg/mL)
CC[C@H](C)[C@H](NC(=O)[C@H](CCCCN)NC(=O)[C@@H](NC(=O)[C@@H](NC(=O)[C@H](CCCCN)NC(=O)CNC(=O)[C@H](CC(C)C)NC(=O)[C@@H](NC(=O)[C@H](CO)NC(=O)CNC(=O)[C@H](C)NC(=O)[C@H](CCCCN)NC(=O)[C@H](CO)NC(=O)[C@H](C)NC(=O)[C@H](CCSC)NC(=O)CN)C(C)C)[C@@H](C)CC)[C@@H](C)O)C(=O)N[C@@H](C)C(=O)N[C@@H](CC(C)C)C(=O)NCC(=O)N[C@@H](C)C(=O)N[C@@H](CC(C)C)C(N)=O [GMASKAGSVLGKITKIALGAL] | – | – | 100 (≈ 199 µg/mL) | 12.5 (≈ 24.8 µg/mL) | MIC [12]: ≥ 50 µM
CC(C)C[C@H](NC(=O)[C@H](CO)NC(=O)[C@H](C)NC(=O)[C@H](Cc1cnc[nH]1)NC(=O)[C@@H](NC(=O)[C@H](C)NC(=O)[C@@H]1CCCN1C(=O)[C@@H](NC(=O)[C@H](Cc1ccccc1)NC(=O)[C@H](CC(=O)O)NC(=O)[C@H](CO)NC(=O)[C@@H]1CCCN1C(=O)[C@H](CC(C)C)NC(=O)[C@H](Cc1cnc[nH]1)NC(=O)[C@H](CO)NC(=O)[C@H](C)NC(=O)[C@H](CC(C)C)NC(=O)[C@@H](NC(=O)[C@@H](N)C(C)C)[C@@H](C)O)[C@@H](C)O)C(C)C)C(=O)N[C@@H](CC(=O)O)C(=O)N[C@@H](CCCCN)C(=O)N[C@@H](Cc1ccccc1)C(=O)O [VTLASHLPSDFTPAVHASLDKF] | – | – | – | – | MIC [1]: 26 µM (≈ 61.2 µg/mL); MIC [2]: ≥ 53 µM; MIC [3]: ≥ 53 µM
CC[C@H](C)[C@H](NC(=O)[C@H](CCCCN)NC(=O)[C@H](CCCCN)NC(=O)[C@H](C)NC(=O)[C@H](CC(C)C)NC(=O)[C@H](CC(N)=O)NC(=O)[C@@H](NC(=O)[C@H](CC(C)C)NC(=O)[C@@H](NC(=O)CNC(=O)[C@H](CC(C)C)NC(=O)[C@H](Cc1ccccc1)NC(=O)[C@@H](N)CC(N)=O)[C@@H](C)O)C(C)C)C(=O)N[C@@H](CC(C)C)C(N)=O [NFLGTLVNLAKKIL] | – | 40 (≈ 61.7 µg/mL) | 16 (≈ 24.7 µg/mL) | ≥ 64 | MIC [12]: ≥ 80 µM; MIC [18]: 20 µM (≈ 30.9 µg/mL)
